Measurements published in the NIST ThermoML archive (doi:10.1016/j.jct.2012.06.020).

Experiment: mn = molality of the nth substance listed, in mol/kg
Settings: 101 kPa, Liquid; for mass density: Vibrating tube method; for speed of sound: OPTIME 1.0 from OPTEL

O=S(=O)([O-])C(F)(F)F.O=S(=O)([O-])C(F)(F)F.O=S(=O)([O-])C(F)(F)F.[Lu+3] [lutetium(III) trifluoromethanesulfonate] + C[S+](C)[O-]
Settings	mass density, 293.15 K [kg/m3]	mass density, 298.15 K [kg/m3]	mass density, 303.15 K [kg/m3]	mass density, 313.15 K [kg/m3]	mass density, 323.15 K [kg/m3]	mass density, 333.15 K [kg/m3]	speed of sound, 298.15 K [m/s]
m1 = 0.01878	1108.65	1103.62	1098.6	1088.57	1078.53	1068.49	–
m1 = 0.02625	1112.04	1107.02	1101.99	1091.95	1081.91	1071.88	–
m1 = 0.03372	1115.44	1110.42	1105.39	1095.36	1085.32	1075.28	–
m1 = 0.03373	–	–	–	–	–	–	1479.8
m1 = 0.04075	1118.67	1113.64	1108.62	1098.58	1088.54	1078.51	1478.9
m1 = 0.05063	1123.23	1118.2	1113.17	1103.14	1093.11	1083.07	1477.6
m1 = 0.06739	1131.05	1126.03	1121	1110.97	1100.94	1090.91	1475.5
m1 = 0.0825	1138.19	1133.17	1128.14	1118.09	1108.05	1098.05	1473.6
m1 = 0.09757	1145.41	1140.38	1135.36	1125.31	1115.27	1105.25	1471.7
m1 = 0.1139	1153.31	1148.28	1143.26	1133.2	1123.17	1113.14	1469.6
m1 = 0.1294	1160.93	1155.9	1150.87	1140.81	1130.77	1120.74	1467.6
m1 = 0.145	1168.67	1163.64	1158.61	1148.56	1138.52	1128.5	1465.7
m1 = 0.1599	1176.2	1171.16	1166.13	1156.07	1146.04	1136.01	1463.9

O=S(=O)([O-])C(F)(F)F.O=S(=O)([O-])C(F)(F)F.O=S(=O)([O-])C(F)(F)F.[La+3] [lanthanum(III) trifluoromethanesulfonate] + C[S+](C)[O-]
Settings	mass density, 293.15 K [kg/m3]	mass density, 298.15 K [kg/m3]	mass density, 303.15 K [kg/m3]	mass density, 313.15 K [kg/m3]	mass density, 323.15 K [kg/m3]	mass density, 333.15 K [kg/m3]	speed of sound, 298.15 K [m/s]
m1 = 0.01831	1107.63	1102.61	1097.59	1087.57	1077.55	1067.52	1482.3
m1 = 0.0248	1110.28	1105.26	1100.24	1090.22	1080.21	1070.19	1481.7
m1 = 0.03536	1114.62	1109.6	1104.59	1094.58	1084.58	1074.57	1480.7
m1 = 0.04296	1117.75	1112.74	1107.73	1097.73	1087.73	1077.74	1479.9
m1 = 0.05181	1121.43	1116.42	1111.41	1101.41	1091.43	1081.44	1479
m1 = 0.0646	1126.78	1121.77	1116.77	1106.78	1096.81	1086.84	1477.8
m1 = 0.08309	1134.62	1129.61	1124.62	1114.64	1104.68	1094.74	1476
m1 = 0.1003	1142	1136.99	1132	1122.04	1112.1	1102.16	1474.3
m1 = 0.1156	1148.66	1143.66	1138.68	1128.72	1118.8	1108.9	1472.9
m1 = 0.1362	1157.7	1152.71	1147.73	1137.79	1127.88	1117.99	1470.8
m1 = 0.1528	1165.12	1160.13	1155.15	1145.24	1135.35	1125.49	1469.3

O=S(=O)([O-])C(F)(F)F.O=S(=O)([O-])C(F)(F)F.O=S(=O)([O-])C(F)(F)F.[Gd+3] [gadolinium (III) trifluoromethanesulfonate] + C[S+](C)[O-]
Settings	mass density, 293.15 K [kg/m3]	mass density, 298.15 K [kg/m3]	mass density, 303.15 K [kg/m3]	mass density, 313.15 K [kg/m3]	mass density, 323.15 K [kg/m3]	mass density, 333.15 K [kg/m3]	speed of sound, 298.15 K [m/s]
m1 = 0.01963	1108.73	1103.71	1098.7	1088.67	1078.66	1068.64	1481.8
m1 = 0.02663	1111.79	1106.78	1101.77	1091.75	1081.75	1071.74	1481
m1 = 0.03818	1116.88	1111.88	1106.87	1096.87	1086.88	1076.89	1479.6
m1 = 0.04655	1120.6	1115.6	1110.6	1100.61	1090.63	1080.64	1478.6
m1 = 0.05549	1124.6	1119.6	1114.6	1104.62	1094.65	1084.68	1477.5
m1 = 0.06913	1130.74	1125.75	1120.76	1110.8	1100.84	1090.89	1475.9
m1 = 0.08877	1139.72	1134.74	1129.76	1119.82	1109.89	1099.96	1473.6
m1 = 0.1071	1148.2	1143.23	1138.26	1128.34	1118.43	1108.52	1471.5
m1 = 0.124	1156.16	1151.2	1146.24	1136.34	1126.45	1116.58	1469.4
m1 = 0.1457	1166.53	1161.57	1156.62	1146.75	1136.88	1127.04	1467
m1 = 0.1629	1174.88	1169.93	1165	1155.14	1145.31	1135.48	1465
